Reference: patent US6495376B1, “Methods and compositions for regulating protein-protein interactions” (Beth Israel Deaconess Medical Center, priority 1999, dated 2002)

Columns and labels:
[1] = target: […] (Pro-Rich); assay: Fluorescence anisotropy binding to fluorescein-labeled Pro-rich peptide; details: GST-WW-domains; † estimated Kd, no plateau at 100 μM WW-domain
[2] = target: […] (Cdc25 Peptide, nonphosphorylated); assay: GST-WW-domain incubated with peptide on a membrane, immunoblotting with GST antibody; type: binding
[3] = test system: Cdc2 phosphorylated tau; assay: Binding of Cdc2 phosphorylated tau to Taxol-stabilized microtubules; type: biochemical; details: Pin1 0.1 mg/ml, tau 0.1 mg/ml
From the text: The high affinity interaction between Pin 1 and phosphorylated tau can affect the biological activity of tau. Upon phosphorylation by many protein kinases, including Cdc2, tau loses its ability to bind microtubules (MTs) and promote MT assembly (Bramblett, G. T. et al., Neuron 10:1089-1099 (1993); Iqbal, K. et al., FEBS Lett 349:104-108 (1994); Yoshida, H. and Ihara, Y. J Neurochem 61:1183-1186 (1993); Alonso, A. C. et al., Proc Natl Acad Sci USA 91:5562-5566 (1994); Busciglio, J. et al., Neuron 14:879-888 (1995)) although the exact mechanism is not fully understood. To determine whether Pin1 can restore the ability of phosphorylated tau to bind MTs, phosphorylated tau was produced using purified Cdc2 (Vincent, I. et al., J Cell Biol 132:413-425 (1996); Vincent, I. et al., J Neurosci 17:3588-3598 (1997)) and assessed for its ability to bind Taxol-stabilized MTs in the presence or absence of Pin1. […] Pin1 was detected in the fraction of tau-bound MTs confirming interaction between Pin1 and phosphorylated tau.
The effect of Pin1 on the ability of phosphorylated tau to promote MT assembly was determined using light-scattering assays (Bramblett, G. T. et al., Neuron 10:1089-1099(1993); Alonso, A. C. et al., Proc Natl Acad Sci USA 91:5562-5566 (1994); Busciglio, J. et al., Neuron 14:879-888 (1995)). […]

[4] = test system: tau-promoted MT assembly; assay: Microtubule assembly light-scattering assay (turbidity at 350 nm); type: biochemical; details: 0.05 mg/ml protein, 0.05 mg/ml tau
Description: The effect of Pin1 on the ability of phosphorylated tau to promote MT assembly was determined using light-scattering assays (Bramblett, G. T. et al., Neuron 10:1089-1099(1993); Alonso, A. C. et al., Proc Natl Acad Sci USA 91:5562-5566 (1994); Busciglio, J. et al., Neuron 14:879-888 (1995)). Briefly, MTs were assembled from phosphocellulose purified bovine tubulin (Cytoskeleton, Inc) and stabilized by Taxol. The nonphosphorylated or Cdc2 phosphorylated recombinant tau (0.1 mg/ml) was incubated with Pin1 (0.1 mg/ml) at 35° C. for 5 min before adding to the MTs. Bound tau was isolated by centrifugation (50,000×g) at 25° C. for 20 min, followed by immunoblotting analysis using CP27 and Pin1 antibodies. The ability of tau to promote MT assembly was determined using well established light-scattering assays. Briefly, the assembly of MTs was initiated by incubating tubulin (2 mg/ml) with or without tau (0.05 mg/ml) in 80 mM PIPES, pH 6.8, 1 mM EGTA, 1 mM MgCl2, 1 mM GTP, 20% glycerol at 35° C. for 2 min. The mixture was then transferred to a 100 μl cuvet and the rate of the MT assembly was monitored at room temperature using the turbidity increase at 350 nm. To examine the effect of Pin1, Pin1 or its mutant (0.05 mg/ml) was pre-incubated with tau or Cdc2 phosphorylated tau (0.05 mg/ml) at 35° C. for 5 min before the MT assembly assays.

Chain of tau-promoted MT assembly (P10636 45-219 isoform P10636-2 limits assumed): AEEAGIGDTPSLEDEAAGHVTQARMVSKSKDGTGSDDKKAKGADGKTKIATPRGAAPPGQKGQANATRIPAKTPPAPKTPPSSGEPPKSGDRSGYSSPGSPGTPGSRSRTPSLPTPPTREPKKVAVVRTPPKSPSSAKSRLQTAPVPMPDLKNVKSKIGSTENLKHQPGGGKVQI
Chain of Cdc2 phosphorylated tau (P10636 45-219 isoform P10636-2 limits assumed): as above

| Substance | Kd (μM) Pro-Rich IPGTPPPNYD [1] | Kd (μM) Cdc25 Peptide EQPLTPVTDL [2] | restoration of binding of Cdc2 phosphorylated tau to MTs [3] | effect on ability of Cdc2 phosphorylated tau to promote MT assembly [4] | effect on ability of nonphosphorylated tau to promote MT assembly [4] |
| --- | --- | --- | --- | --- | --- |
| Pin1 WW-domain: N-terminal WW-domain (amino acids 1-54) of Pin1 (MADEEKLPPGWEKRMSRSSGRVYYFNHITNASQWERPSGNSSSGGKNGQGEPAR; left off: a dimerising Fc or GST) | N.B. | N.B.* |  |  |  |
| Pin1: wild-type human prolyl isomerase (PPIase) Pin1 with N-terminal WW-domain; tag cleaved in Table 2 |  |  | binding was restored | restored the ability of Cdc2 phosphorylated tau to promote MT assembly | no effect |
